Patent US8563559B2 (Rigel Pharmaceuticals, Inc., priority 2006, dated 2013)

target: T1, Axl (Homo sapiens, UniProt P30530); test: Phospho-AKT in-cell Western assay (inhibition of Axl activity); assay type: cell-based; settings: Table 1, formula (Ia); Hela cells, Axl antibody cross-linking stimulation, phospho-Akt chemiluminescence normalized to relative cell number
T1 construct: endogenous in cells; host or cells: HeLa
T1 sequence (P30530 26-894): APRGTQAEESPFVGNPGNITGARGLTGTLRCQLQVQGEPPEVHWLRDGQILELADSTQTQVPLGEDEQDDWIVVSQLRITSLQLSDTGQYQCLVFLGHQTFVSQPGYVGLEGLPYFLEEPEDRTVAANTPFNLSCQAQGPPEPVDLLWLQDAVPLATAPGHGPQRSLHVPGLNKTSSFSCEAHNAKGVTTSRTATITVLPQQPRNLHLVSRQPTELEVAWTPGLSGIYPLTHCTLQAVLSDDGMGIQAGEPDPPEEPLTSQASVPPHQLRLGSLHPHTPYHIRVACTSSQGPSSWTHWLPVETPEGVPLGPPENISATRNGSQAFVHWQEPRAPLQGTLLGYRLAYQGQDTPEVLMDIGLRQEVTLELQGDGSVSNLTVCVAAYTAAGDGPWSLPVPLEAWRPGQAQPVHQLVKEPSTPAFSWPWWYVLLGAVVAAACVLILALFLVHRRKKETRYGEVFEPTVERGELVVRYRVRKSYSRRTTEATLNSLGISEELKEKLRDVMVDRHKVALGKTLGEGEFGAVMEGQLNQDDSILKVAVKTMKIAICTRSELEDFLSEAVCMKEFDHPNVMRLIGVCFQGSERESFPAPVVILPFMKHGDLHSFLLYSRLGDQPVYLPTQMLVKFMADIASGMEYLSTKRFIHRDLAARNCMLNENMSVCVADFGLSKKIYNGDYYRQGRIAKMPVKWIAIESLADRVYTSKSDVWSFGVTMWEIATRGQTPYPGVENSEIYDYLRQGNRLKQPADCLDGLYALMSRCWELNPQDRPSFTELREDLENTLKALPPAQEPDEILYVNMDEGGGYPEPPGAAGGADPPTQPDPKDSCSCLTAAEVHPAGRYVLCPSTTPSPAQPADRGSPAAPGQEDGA
Procedure: The compounds of the invention were tested in the following assay for their ability to inhibit Axl activity.
Phospho-AKT in-Cell Western Assay
• Cell culture plate: 96 well assay plate (Corning 3610), white, clear bottom, tissue-culture treated. • Cells: Hela cells. • Starvation medium: For Axl stimulation: 0.5% FCS (fetal calf serum) in DMEM, plus Axl/Fc (extracellular domain of AXL fused to immunoglobulin Fc region) (R&D, 154-AL) 500 ng/mL. • For EGF (epidermal growth factor) stimulation: 0.5% FCS in DMEM (Dulbecco's modified Eagles medium). • Poly-L-Lysine 0.01% solution (the working solution): 10 μg/ml, dilute In PBS (phosphate buffered saline). • Axl antibody cross-linking: • 1st: Mouse anti-Axl (R&D, MAB154). • 2nd: Biotin-SP-conjugated AffiniPure goat anti-mouse IgG (H+L) (Jackson ImmunoResearch #115-065-003). • Fixing buffer: 4% formaldehyde in PBS. • Wash buffer: 0.1% TritonX-100 in PBS. • Quenching buffer: 3% H2O2, 0.1% Azide in wash buffer, Azide and hydrogen peroxide 1(H2O2) are added fresh. • Blocking buffer: 5% BSA in TBST (tris buffered saline plus 0.1% Tween 20). • Primary antibody: Rabbit anti-human Phospho-Akt antibody (Cell Signaling 9271): 1×250 diluted in blocking buffer. • Secondary antibody: HRP (horse radish peroxidase)-conjugated Goat anti-Rabbit secondary, stock solution: Jackson ImmunoResearch (Goat anti-Rabbit HRP, #111-035-144) 1:1 diluted in glycerol, store at −20° C. The working solution: 1×2000 dilution of stock in blocking buffer. • Chemiluminescent working solution (Pierce, 37030): SuperSignal ELISA (enzyme linked immunosorbant assay) Pico Chemiluminescent substrate. • Crystal Violet solution: Stock: 2.5% Crystal violet in methanol, filtered and kept at ambient temperature. The working solution: dilute the stock 1:20 with PBS immediately before use. • 10% SDS: working solution: 5% SDS (sodium dodecylsulfate), diluted in PBS Methods: Day 1:
A 96 well TC (tissue culture treated) plate was coated with 10 μg/mL poly-L-Lysine at 37° C. for 30 min, washed twice with PBS, and air-dried for 5 minutes before cells were added. Hela cells were seeded at 10,000 cells/well and the cells were starved in 100 μL starvation medium containing Axl/Fc for 24 hrs.
The cells were pre-treated with test compounds by adding 100 μL of 2× test compound to the starvation medium on the cells. The cells were incubated at 37° C. for 1 hr before stimulation.
The cells were stimulated by Axl-antibody cross-linking as follows: A 5×1st/2nd Axl antibody mixture was made (37.5 μg/mL 1st/100 μg/mL 2nd) in starvation medium and nutated at 4° C. with thorough mixing for 1-2 hours for clustering. The resulting mix was warmed to 37° C. 50 μL of 5×Axl 1st/2nd of antibody cluster was added to the cells and the cells were incubated at 37° C. for 5 min.
After 5 minutes stimulation, the plate was flicked to remove medium and the plate was tapped onto paper towels. Formaldehyde (4.0% in PBS, 100 μL) was added to fix the cells and the cells were incubated at ambient temperature for 20 min without shaking.
The cells were washed with a plate washer buffer to remove the formaldehyde solution. The plate was flicked to removed excess wash buffer and tapped onto paper towels. Quenching buffer (100 μL) was added to each well and the cells were incubated at ambient temperature for 20 minutes without shaking.
The cells were washed with a plate washer buffer to remove the quenching buffer. Blocking buffer (100 μL) was added and the cells were incubated at ambient temperature for at least an hour with gentle shaking.
The cells were washed with a plate washer buffer and diluted primary antibody (50 μL) was added to each well (blocking buffer was added to the negative control wells instead). The plates were incubated overnight at 4° C. with gentle shaking.
The wash buffer was removed, diluted secondary antibody (100 μL) was added, and the cells were incubated at ambient temperature for 1 hour with gentle shaking. […]

Question: `CNC(=O)[C@H]1C[C@H]2C[C@H](C2(C)C)[C@@]1(C)Nc1nc(Nc2ccc(N3CCN(S(C)(=O)=O)CC3)c(C(F)(F)F)c2)ncc1F` [Compound 37, (1R,2R,3S,5R)-2-(5-fluoro-2-(3-trifluoromethyl-4-(4-methylsulfonylpiperazin-1-yl)phenylamino)pyrimidin-4-ylamino)-N,2,6,6-tetramethylbicyclo[3.1.1]heptane-3-carboxamide] was tested. Which IC50 did it give?
Answer: > 20000 nM

Question: Which IC50 does the source give for `CNC(=O)[C@H]1C[C@H]2C[C@H](C2(C)C)[C@@]1(C)Nc1nc(Nc2ccc(N3CCN(C(C)=O)CC3)c(Cl)c2)ncc1F` [Compound 38, (1R,2R,3S,5R)-2-(5-fluoro-2-(3-chloro-4-(4-acetylpiperazin-1-yl)phenylamino)pyrimidin-4-ylamino)-N,2,6,6-tetramethylbicyclo[3.1.1]heptane-3-carboxamide] here?
Answer: 1000 to 10000 nM

Question: With `CNC(=O)[C@H]1C[C@H]2C[C@H](C2(C)C)[C@@]1(C)Nc1nc(Nc2ccc(N3CCN(C(C)=O)CC3)c(C(F)(F)F)c2)ncc1F` [Compound 39, (1R,2R,3S,5R)-2-(5-fluoro-2-(3-trifluoromethyl-4-(4-acetylpiperazin-1-yl)phenylamino)pyrimidin-4-ylamino)-N,2,6,6-tetramethylbicyclo[3.1.1]heptane-3-carboxamide] as the molecule, how does the IC50 read?
Answer: > 20000 nM

Question: Which IC50 does the source give for `CNC(=O)[C@H]1C[C@H]2C[C@H](C2(C)C)[C@@]1(C)Nc1nc(Nc2ccc(OCCN3CCCC3)cc2)ncc1F` [Compound 40, (1R,2R,3S,5R)-2-(5-fluoro-2-(4-(2-(pyrrolidin-1-yl)ethoxy)phenylamino)pyrimidin-4-ylamino)-N,2,6,6-tetramethylbicyclo[3.1.1]heptane-3-carboxamide] here?
Answer: 1000 to 10000 nM

Question: Which IC50 does the source give for `CNC(=O)[C@H]1C[C@H]2C[C@H](C2(C)C)[C@@]1(C)Nc1nc(Nc2ccc(N3CCN(CCO)CC3)cc2)ncc1Cl` [Compound 41, (1R,2R,3S,5R)-2-(5-chloro-2-(4-(4-(2-hydroxyethyl)piperazin-1-yl)phenylamino)pyrimidin-4-ylamino)-N,2,6,6-tetramethylbicyclo[3.1.1]heptane-3-carboxamide] here?
Answer: < 1000 nM

Question: `CNC(=O)[C@H]1C[C@H]2C[C@H](C2(C)C)[C@@]1(C)Nc1nc(Nc2ccc(N3CCN(CCO)CC3)cc2)ncc1C` [Compound 42, (1R,2R,3S,5R)-2-(5-methyl-2-(4-(4-(2-hydroxyethyl)piperazin-1-yl)phenylamino)pyrimidin-4-ylamino)-N,2,6,6-tetramethylbicyclo[3.1.1]heptane-3-carboxamide] was tested. Which IC50 did it give?
Answer: 1000 to 10000 nM

Question: `CNC(=O)[C@H]1C[C@H]2C[C@H](C2(C)C)[C@@]1(C)Nc1nc(Nc2ccc(N3CCN(C)CC3)c(F)c2)ncc1C` [Compound 43, (1R,2R,3S,5R)-2-(5-methyl-2-(3-fluoro-4-(4-methylpiperazin-1-yl)phenylamino)pyrimidin-4-ylamino)-N,2,6,6-tetramethylbicyclo[3.1.1]heptane-3-carboxamide] was tested. Which IC50 did it give?
Answer: < 1000 nM

Question: `CNC(=O)[C@H]1C[C@H]2C[C@H](C2(C)C)[C@@]1(C)Nc1nc(Nc2ccc(N3CCC(F)(F)CC3)c(F)c2)ncc1C` [Compound 44, (1R,2R,3S,5R)-2-(5-methyl-2-(3-fluoro-4-(4,4-difluoropiperidin-1-yl)phenylamino)pyrimidin-4-ylamino)-N,2,6,6-tetramethylbicyclo[3.1.1]heptane-3-carboxamide] was tested. Which IC50 did it give?
Answer: 1000 to 10000 nM

same assay, conditions: Table 3, formula (Ic); Hela cells, Axl antibody cross-linking stimulation, phospho-Akt chemiluminescence normalized to relative cell number

Question: For `CCN(CC)CCN1CCOc2cc(Nc3ncc(Cl)c(N[C@@]4(C)[C@@H](C(=O)NC)C[C@H]5C[C@@H]4C5(C)C)n3)ccc21` [Compound 45, (1R,2R,3S,5R)-2-(5-chloro-2-((3,4-dihydro-4-(2-(diethylamino)ethyl)-2H-benzo[b][1,4]oxazin-7-yl)amino)pyrimidin-4-ylamino)-N,2,6,6-tetramethylbicyclo[3.1.1]heptane-3-carboxamide], which IC50 is on record?
Answer: < 1000 nM

Question: For `CCN(CC)CCN1CCOc2cc(Nc3ncc(F)c(N[C@@]4(C)[C@@H](C(=O)NC)C[C@H]5C[C@@H]4C5(C)C)n3)ccc21` [Compound 46, (1R,2R,3S,5R)-2-(5-fluoro-2-((3,4-dihydro-4-(2-(diethylamino)ethyl)-2H-benzo[b][1,4]oxazin-7-yl)amino)pyrimidin-4-ylamino)-N,2,6,6-tetramethylbicyclo[3.1.1]heptane-3-carboxamide], which IC50 is on record?
Answer: < 1000 nM

Question: `CNC(=O)[C@H]1C[C@H]2C[C@H](C2(C)C)[C@@]1(C)Nc1nc(Nc2ccc3c(c2)OCCN3CCN(C)C)ncc1Cl` [Compound 47, (1R,2R,3S,5R)-2-(5-chloro-2-((3,4-dihydro-4-(2-(dimethylamino)ethyl)-2H-benzo[b][1,4]oxazin-7-yl)amino)pyrimidin-4-ylamino)-N,2,6,6-tetramethylbicyclo[3.1.1]heptane-3-carboxamide] was tested. Which IC50 did it give?
Answer: < 1000 nM

Question: For `CNC(=O)[C@H]1C[C@H]2C[C@H](C2(C)C)[C@@]1(C)Nc1nc(Nc2ccc3c(c2)OCCN3CCN(C)C)ncc1F` [Compound 48, (1R,2R,3S,5R)-2-(5-fluoro-2-((3,4-dihydro-4-(2-(dimethylamino)ethyl)-2H-benzo[b][1,4]oxazin-7-yl)amino)pyrimidin-4-ylamino)-N,2,6,6-tetramethylbicyclo[3.1.1]heptane-3-carboxamide], which IC50 is on record?
Answer: 1000 to 10000 nM

Question: For `CNC(=O)[C@H]1C[C@H]2C[C@H](C2(C)C)[C@@]1(C)Nc1nc(Nc2ccc3c(c2)OCCN3CCN(C)C)ncc1C` [Compound 49, (1R,2R,3S,5R)-2-(5-methyl-2-((3,4-dihydro-4-(2-(dimethylamino)ethyl)-2H-benzo[b][1,4]oxazin-7-yl)amino)pyrimidin-4-ylamino)-N,2,6,6-tetramethylbicyclo[3.1.1]heptane-3-carboxamide], which IC50 is on record?
Answer: 1000 to 10000 nM

Question: Which IC50 does the source give for `CNC(=O)[C@H]1C[C@H]2C[C@H](C2(C)C)[C@@]1(C)Nc1nc(Nc2ccc3c(c2)N(CCN(C)C)CCO3)ncc1Cl` [Compound 50, (1R,2R,3S,5R)-2-(5-chloro-2-((3,4-dihydro-4-(2-(dimethylamino)ethyl)-2H-benzo[b][1,4]oxazin-6-yl)amino)pyrimidin-4-ylamino)-N,2,6,6-tetramethylbicyclo[3.1.1]heptane-3-carboxamide] here?
Answer: 1000 to 10000 nM
